Tests used:
[1] = molecular target: T1, guinea pig right atria (Cavia porcellus, UniProt H0W3H1); assay: Beta blocking activity in vitro, guinea pig right atria (isoproterenol-induced rate change); conditions: guinea pig right atria, vs isoproterenol, 60-minute incubation; read-out: pA2 value in the atria (converted)
T1 construct: from tissue; host or cells: guinea pig right atria (isolated, spontaneously beating)
Method: (§1) Compounds of the present invention are tested for β-blocking activity in vitro using guinea pig right atria and guinea pig tracheal strips mounted in a tissue bath containing oxygenated (95% O2 -5% CO2) Krebs physiological salt solution at 37° C. Each tissue is suspended between a fixed glass rod and a Statham Universal Transducer connected to a Beckman recorder. Atria were allowed to beat spontaneously under a loading tension of approximately 0.5 gm. Intrinsic depressant or stimulant activity is determined for each compound by progressively increasing concentrations in the tissue baths at 60-minute intervals. Tissues are not washed between increments. The maximum concentration showing little or no cardiodepressant activity is chosen for blockade experiments. Changes in rate in response to isoproterenol, a standard β-receptor agonist, is measured in the absence and presence of test compounds. Spiral strips of guinea pig trachea are suspended under 5 gm resting tension and incubated with phentolamine, tropolone and cocaine. Active tension is generated by addition of carbachol (3.0×10^-7 M) and decreases in tension in response to isoproterenol are quantitated. Cumulative concentration-response curves are produced with isoproterenol both before and after 60-minute incubation of test compounds with atria and trachea. […]

[2] = test system: guinea pig right atria; assay: as above; conditions: ratio greater than one indicates cardioselectivity
Method: as §1

[3] = molecular target: T2, guinea pig tracheal strips (Cavia porcellus, UniProt Q8K4Z4); assay: Beta blocking activity in vitro, guinea pig tracheal strips (isoproterenol-induced relaxation); conditions: carbachol tension, vs isoproterenol, 60-minute incubation, read-out: pA2 value in the trachea (converted)
T2 construct: from tissue; host or cells: guinea pig tracheal spiral strips
T2 sequence (Q8K4Z4 whole entry): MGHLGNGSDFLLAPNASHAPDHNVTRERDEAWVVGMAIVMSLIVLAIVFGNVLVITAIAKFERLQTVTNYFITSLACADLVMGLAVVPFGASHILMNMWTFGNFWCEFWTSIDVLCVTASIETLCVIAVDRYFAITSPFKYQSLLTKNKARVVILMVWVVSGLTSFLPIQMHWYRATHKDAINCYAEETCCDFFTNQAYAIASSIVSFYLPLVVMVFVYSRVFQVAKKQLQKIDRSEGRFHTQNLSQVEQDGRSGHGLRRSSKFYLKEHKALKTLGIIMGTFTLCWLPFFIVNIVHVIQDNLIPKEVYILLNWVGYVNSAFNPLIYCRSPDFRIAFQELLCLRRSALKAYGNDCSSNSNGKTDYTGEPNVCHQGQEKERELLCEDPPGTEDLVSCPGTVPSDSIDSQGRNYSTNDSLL
Method: as §1

[4] = test system: β-blockade of isoproterenol heart rate response; assay: Duration of beta-blocking action in vivo, anesthetized dogs; parameters: species or system dog; conditions: pentobarbital-anesthetized dogs, after 3-hour infusion, isoproterenol 0.5 μg/kg bolus
Method: The duration of β-blockade is determined In vivo using pentobarbital-anesthetized dogs instrumented for measurement of heart rate using a Beckman cardiotachometer triggered electronically by a phasic aortic blood pressure signal. Both vagus nerves are severed in the cervical region and the animals are mechanically ventilated. The experimental design used employs a 3-hour infusion of test compound. Bolus doses of isoproterenol (0.5 μg/kg) are used to assess the degree of β-blockade and recovery from β-blockade after […] of the infusion. The doses are spaced at 10-minute intervals and are given before, during and following the infusion of test compounds. The infusion rate is adjusted so that at the end of the 3-hour infusion period the degree of isoproterenol inhibition averaged about 50% of control. Following termination of blocker infusion, percent recovery from β-blockade is computed and the time associated with 80% recovery estimated.

T1 sequence (H0W3H1 1-470): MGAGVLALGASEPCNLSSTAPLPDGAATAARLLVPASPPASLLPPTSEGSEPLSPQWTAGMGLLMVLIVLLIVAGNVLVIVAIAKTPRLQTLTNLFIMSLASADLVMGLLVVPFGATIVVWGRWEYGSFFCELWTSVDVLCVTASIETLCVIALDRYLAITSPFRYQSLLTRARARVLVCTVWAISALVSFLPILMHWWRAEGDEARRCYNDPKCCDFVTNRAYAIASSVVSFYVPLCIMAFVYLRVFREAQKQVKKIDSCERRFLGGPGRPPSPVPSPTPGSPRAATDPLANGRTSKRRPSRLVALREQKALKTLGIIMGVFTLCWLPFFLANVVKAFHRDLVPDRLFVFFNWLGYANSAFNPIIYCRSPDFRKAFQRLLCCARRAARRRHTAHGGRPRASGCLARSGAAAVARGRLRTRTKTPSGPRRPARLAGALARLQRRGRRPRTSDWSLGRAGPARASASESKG

COC(=O)c1ccccc1OCC(O)CNCCNc1ccc([N+](=O)[O-])cn1 (stereo not shown) [Example I, Methyl 2[2-Hydroxy-3-[2-[2-(5-nitropyridinyl)amino]ethyl]aminopropoxy benzoate]
Kb [1]: 31.6 nM | cardioselectivity (ratio KB trachea/KB atria) [2]: 2.5 | Kb [3]: 79.4 nM | in vivo duration of action (time to 80% recovery from β-blockade) [4]: 15 ± 6 min

From US4556668A, “Ethylenediamine derivatives of aryloxypropanolamine aryl esters having various medicinal properties” (American Hospital Supply Corporation, priority 1983, dated 1985)
